Results from patent US20060188913A1, “Methods and products for enhancing immune responses using imidazoquinoline compounds” (University of Iowa Research Foundation, priority 2001, published 2006).

Tests used:
hTLR9 [1] = biological target: T1, hTLR9 (Homo sapiens, UniProt Q9NR96, H530R/Q688R); assay: NF-kappa B luciferase activation in 293T cells transiently transfected with hTLR9; format: cell-based; conditions: hTLR9-transfected 293T cells, positive control for transfection
T1 construct: 293-TLR9-Luc cells contain a genomic copy of the hTLR9 open reading frame and the NF-kappa B-luciferase cassette; expressed in transfected cells; host or cells: 293-TLR9-Luc (stably transfected human embryo kidney 293 cells)
T1 sequence (Q9NR96 26-1032 H530R/Q688R): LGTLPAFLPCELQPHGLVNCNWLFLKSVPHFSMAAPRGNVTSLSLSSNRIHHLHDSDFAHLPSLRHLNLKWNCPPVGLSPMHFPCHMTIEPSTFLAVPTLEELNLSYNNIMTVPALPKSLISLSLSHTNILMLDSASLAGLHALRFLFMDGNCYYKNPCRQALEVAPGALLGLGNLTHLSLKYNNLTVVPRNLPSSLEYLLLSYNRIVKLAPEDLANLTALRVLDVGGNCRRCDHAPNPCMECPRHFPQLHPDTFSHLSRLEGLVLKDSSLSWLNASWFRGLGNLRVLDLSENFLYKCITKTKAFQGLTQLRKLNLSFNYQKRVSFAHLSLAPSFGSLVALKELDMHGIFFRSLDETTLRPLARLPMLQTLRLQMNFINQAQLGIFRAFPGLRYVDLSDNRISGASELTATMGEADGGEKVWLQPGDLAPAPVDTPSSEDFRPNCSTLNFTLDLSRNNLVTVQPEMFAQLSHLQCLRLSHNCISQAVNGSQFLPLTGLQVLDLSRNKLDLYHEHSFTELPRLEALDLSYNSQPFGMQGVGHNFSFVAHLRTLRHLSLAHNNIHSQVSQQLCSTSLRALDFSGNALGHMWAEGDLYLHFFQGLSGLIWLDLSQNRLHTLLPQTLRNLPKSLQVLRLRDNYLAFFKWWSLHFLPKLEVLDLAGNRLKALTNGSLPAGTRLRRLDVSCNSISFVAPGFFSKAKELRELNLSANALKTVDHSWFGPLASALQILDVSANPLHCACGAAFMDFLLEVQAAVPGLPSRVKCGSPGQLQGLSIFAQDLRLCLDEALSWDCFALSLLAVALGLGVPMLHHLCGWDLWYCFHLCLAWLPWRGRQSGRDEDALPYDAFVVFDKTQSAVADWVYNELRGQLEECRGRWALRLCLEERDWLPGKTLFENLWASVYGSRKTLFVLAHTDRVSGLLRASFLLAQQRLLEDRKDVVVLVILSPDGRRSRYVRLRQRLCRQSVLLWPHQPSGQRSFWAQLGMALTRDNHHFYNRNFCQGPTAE
Method: (§1) Cells used for transfections were 293T (human embryo kidney cells, T-antigen transfected) or 293-TLR9-Luc (stable transfectants, human embryo kidney cells expressing the human TLR9 receptor and containing a genomic NF-kappa B-luciferase cassette).
Transfections were performed in six-well plates. Cells were plated the day before transfection at 4×10^5/well in DMEM+10% FCS.
Constructs: TLR cDNAs were cloned into pcDNA3.1. NF-kappa B activation was measured by using an 5× NF-kappa B-Luciferase construct (Stratagene). Transfection efficiency was determined by using a beta-galactosidase (beta-gal) reporter construct (p beta-Gal-Control, Clontech).
(§2) Stimulation was performed 24 h after transfection. Medium of the cells was reduced to 1 ml (without medium change) and cells were stimulated with indicated amounts of R-848, LPS, ODN 8954, 2006 and IL-1 beta for 16 h.
(§3) Cell extracts were prepared by lysing the cells in 100 μl reporter lysis buffer using the freeze-thaw method. NF-kappa B stimulation was measured through luciferase activity (Promega). All data were normalized for beta-gal expression. Stimulation indices were calculated in reference to luciferase activity of medium without addition of ODN.
293T cells, stably transfected with a NF-kappa B-luciferase reporter construct, were transiently transfected with plasmids (pcDNA3.1 constructs) coding for full length hTLR2, hTLR7, hTLR8 and hTLR9. […]

hTLR9 [2] = biological target: T1, hTLR9; assay: NF-kappa B luciferase activation in stably transfected 293-TLR9-Luc cells; format: cell-based
Method: as §1, §2, §3
Since R-848 has immune modulatory properties, this experiment examined whether R-848-mediated immune responses are hTLR9-dependent. Cells stably transfected with hTLR9 and a NF-kappa B reporter construct (293-TLR-Luc cells) were incubated for 16 hours with IL-1, CpG ODN 2006, control non-CpG ODN 1982 (5′ […] 3′, SEQ ID NO:3), or increasing amounts of R-848. NF-kappa B activation was determined by measurement of luciferase activity. Activity is given in x-fold activation compared to luciferase activity in medium control.

CpG ODN 2006
NF-kappa B activation (hTLR9 [1]): 3 fold
NF-kappa B activation (x-fold activation compared to luciferase activity in medium control) (hTLR9 [2]; 293-TLR-Luc cells, 16 hours, 1 to 12 μg/ml): 10- to 30 fold
hTLR9-mediated NF-kappa B activation (in words) (hTLR9 [2]; cells expressing hTLR9 alone, 293-TLR-Luc with pcDNA (empty vector)): hTLR9-mediated activation of NF-kappa B by CpG ODN 2006
